Structures can show the parent of a compound that is named as a salt.
| melting point | SMILES |
| --- | --- |
| 238 to 241 °C | COc1ccccc1S[C@H](c1ccc(Cl)cc1)[C@H]1CNCCO1 (single isomer, unassigned) (as salt: hydrochloride) [Example 12] |
| 233 to 234 °C | COc1ccccc1S[C@H](c1cccc(F)c1)[C@H]1CNCCO1 (single isomer, unassigned) (as salt: hydrochloride) [Example 13] |
| 211 to 215 °C | CCOc1ccccc1S[C@H](c1cccc(F)c1)[C@H]1CNCCO1 (single isomer, unassigned) (as salt: hydrochloride) [Example 14] |
| 183 to 187 °C | Fc1cccc([C@@H](Sc2ccccc2Cl)[C@H]2CNCCO2)c1 (single isomer, unassigned) (as salt: hydrochloride) [Example 15] |

From patent US7294623B2, “Benzyl morpholine derivatives” (Eli Lilly and Company, priority 2002, dated 2007)
